Test results: the supplement of paper PMC11208160

Assay: recombinant barcode read abundance after kanamycin selection (control-corrected) (log10(CPM+1)); higher = more efficient recombination; sequences stand for … in AGTGCAGAGAAAATCGGCCAGTTTTCTCTGCCTGCAGTCCGCATGCCGT…AGATTTATGCAGCGGACTGCCTTTCTCCCAAAGTGATAAACCGGACAGTATCATGGACCGGTTTTCCCGGTAATCCGTATTTGCAAGGTTGGTTTCACT; site = the 11-nt target
How it was run: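 Two replicates per condition were plated: chloramphenicol/ampicillin LB agar for the control, and chloramphenicol/ampicillin/kanamycin with 0.1 mM IPTG for selection. The pooled E. coli screen behind them paired targets with IS621 bridge RNA target-binding loops. Recombination efficiency is expressed from averaged, control-corrected barcode counts per million at recombinant junctions, as log10(CPM+1).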
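Note: IS621 recombinase and bridge RNA in Escherichia coli cells.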

Sequence	recombinant barcode read abundance (log10)
TGTGAGTCTTGGGTTCTAACCTGTTGCGT (site TGTGAGTCTAG)	0.27
TGTGAGTCTTGGGTTCTAACCTGTTGCGT (site TGTGAGTCTAT)	1.42
TGTGCGGCTTGGGTTCTAACCTGTTGCCT (site AGTGCGGCTAG)	0.0331
TGTGCGGCTTGGGTTCTAACCTGTTGCCT (site CGTGCGGCTAG)	0.00936
TGTGCGGCTTGGGTTCTAACCTGTTGCCT (site GGTGCGGCTAG)	0.535
TGTGCGGCTTGGGTTCTAACCTGTTGCCT (site TGTGCGGCTAG)	0.152
TGTTCCTCTTGGGTTCTAACCTGTTGCCT (site TGTACCTCTAG)	0.143
TGTTCCTCTTGGGTTCTAACCTGTTGCCT (site TGTCCCTCTAG)	0.142
TGTTCCTCTTGGGTTCTAACCTGTTGCCT (site TGTGCCTCTAG)	0.114
TGTTCCTCTTGGGTTCTAACCTGTTGCCT (site TGTTCCTCTAG)	0.106
TGTTCTACTTGGGTTCTAACCTGTTGCCG (site TGCTCTACTCA)	0.052
TGTTCTACTTGGGTTCTAACCTGTTGCCG (site TGTTCTACTCG)	0.0964
TGTTCTCCTTGGGTTCTAACCTGTTGCCT (site AGTTCTCCTAG)	0.0134
TGTTCTCCTTGGGTTCTAACCTGTTGCCT (site CGTTCTCCTAG)	0.0608
TGTTCTCCTTGGGTTCTAACCTGTTGCCT (site GGTTCTCCTAG)	0.064
TGTTCTCCTTGGGTTCTAACCTGTTGCCT (site TGTTCTCCTAG)	0
TGTTGACCTTGGGTTCTAACCTGTTGCAT (site TGTAGATCTAT)	0.0346
TGTTGACCTTGGGTTCTAACCTGTTGCAT (site TGTTGACCTAT)	0.329
TTACATGCTTGGGTTCTAACCTGTTGCCT (site AAGATCACTCC)	0.281
TTACATGCTTGGGTTCTAACCTGTTGCCT (site TTACATGCTAG)	1.27
TTAGAGGCTTGGGTTCTAACCTGTTGCCT (site TTAGAGACTAG)	0.363
TTAGAGGCTTGGGTTCTAACCTGTTGCCT (site TTAGAGCCTAG)	0

Sequence	recombinant barcode read abundance (log10)
TTAGAGGCTTGGGTTCTAACCTGTTGCCT (site TTAGAGGCTAG)	1.13
TTAGAGGCTTGGGTTCTAACCTGTTGCCT (site TTAGAGTCTAG)	0.0154
TTAGCATCTTGGGTTCTAACCTGTTGCCT (site TTAGCATCTAG)	0.589
TTAGCATCTTGGGTTCTAACCTGTTGCCT (site TTAGCCTCTAG)	0.412
TTAGCATCTTGGGTTCTAACCTGTTGCCT (site TTAGCGTCTAG)	0.161
TTAGCATCTTGGGTTCTAACCTGTTGCCT (site TTAGCTTCTAG)	0.0531
TTAGGGTCTTGGGTTCTAACCTGTTGCCT (site TTAGGGACTAG)	0.252
TTAGGGTCTTGGGTTCTAACCTGTTGCCT (site TTAGGGCCTAG)	1.17
TTAGGGTCTTGGGTTCTAACCTGTTGCCT (site TTAGGGGCTAG)	0.0984
TTAGGGTCTTGGGTTCTAACCTGTTGCCT (site TTAGGGTCTAG)	2.15
TTAGTCGCTTGGGTTCTAACCTGTTGCCT (site TTAGTAGCTAG)	0.191
TTAGTCGCTTGGGTTCTAACCTGTTGCCT (site TTAGTCGCTAG)	2.28
TTAGTCGCTTGGGTTCTAACCTGTTGCCT (site TTAGTGGCTAG)	0.134
TTAGTCGCTTGGGTTCTAACCTGTTGCCT (site TTAGTTGCTAG)	0.0472
TTAGTTGCTTGGGTTCTAACCTGTTGCCT (site TTAGTAGCTAG)	0.225
TTAGTTGCTTGGGTTCTAACCTGTTGCCT (site TTAGTCGCTAG)	0.0596
TTAGTTGCTTGGGTTCTAACCTGTTGCCT (site TTAGTGGCTAG)	0.0286
TTAGTTGCTTGGGTTCTAACCTGTTGCCT (site TTAGTTGCTAG)	1.4
TTCAACTCTTGGGTTCTAACCTGTTGCGT (site TTCAACTCTAC)	1.56
TTCAACTCTTGGGTTCTAACCTGTTGCGT (site TTCAAGTCTAC)	0.0543
TTCAAGCCTTGGGTTCTAACCTGTTGCGT (site TTCAAGCCTAC)	1.17
TTCAAGCCTTGGGTTCTAACCTGTTGCGT (site TTCAAGCCTCC)	0.0397

Sequence	recombinant barcode read abundance (log10)
TTCAGCCCTTGGGTTCTAACCTGTTGCCT (site TACAGCCCTAG)	0.456
TTCAGCCCTTGGGTTCTAACCTGTTGCCT (site TTCAGCCCTAG)	0.679
TTCAGTCCTTGGGTTCTAACCTGTTGCAT (site TTAAGTCCTAG)	0
TTCAGTCCTTGGGTTCTAACCTGTTGCAT (site TTCAGTCCTAT)	0.509
TTCATGTCTTGGGTTCTAACCTGTTGCCT (site TTCACGTCTAG)	0.0724
TTCATGTCTTGGGTTCTAACCTGTTGCCT (site TTCATGTCTAG)	0.811
TTCCGTCCTTGGGTTCTAACCTGTTGCTT (site CGAGTGACTTG)	0.0499
TTCCGTCCTTGGGTTCTAACCTGTTGCTT (site TTCCGTCCTAA)	0.0911
TTCTATGCTTGGGTTCTAACCTGTTGCCT (site TCCTGTGCTAG)	0.24
TTCTATGCTTGGGTTCTAACCTGTTGCCT (site TTCTATGCTAG)	0.187
TTCTTCCCTTGGGTTCTAACCTGTTGCCT (site TTCTTCCCTAG)	0.235
TTCTTCCCTTGGGTTCTAACCTGTTGCCT (site TTGTACCCTAG)	0.1
TTGAATGCTTGGGTTCTAACCTGTTGCCT (site TTGAATGCTAG)	1.15
TTGAATGCTTGGGTTCTAACCTGTTGCCT (site TTGACTGCTAG)	0.0516
TTGAATGCTTGGGTTCTAACCTGTTGCCT (site TTGAGTGCTAG)	0.0419
TTGAATGCTTGGGTTCTAACCTGTTGCCT (site TTGATTGCTAG)	0.214
TTGAGGACTTGGGTTCTAACCTGTTGCGT (site TTGAGGACTAC)	2.22
TTGAGGACTTGGGTTCTAACCTGTTGCGT (site TTGAGGACTTG)	0.147
TTGATTACTTGGGTTCTAACCTGTTGCCA (site TTGAGTACTCG)	0.0598
TTGATTACTTGGGTTCTAACCTGTTGCCA (site TTGATTACTTG)	0.0149
TTGCCGACTTGGGTTCTAACCTGTTGCCA (site TTGACGACTTG)	0.608
TTGCCGACTTGGGTTCTAACCTGTTGCCA (site TTGCCGACTTG)	0.503
